Measurements reported in patent publication US20250230438A1, “NEURAL REPAIR THROUGH INHIBITION OF REG3A SIGNALING” (UNIVERSITY OF SOUTH CAROLINA, priority 2023, published 2025).
“Also recorded” adds a separate entry of the source.

B1: recREG3A: recombinant human REG3A (recREG3A) (protein)
chain: EDFQKEVPSPRTSCPMGYKAYRSHCYALVMTPKSWFQADLVCQKRPSGHLVSILSGGEASFVSSLVNGRVDNYQDIWIGLHDPTMGQQPNGGGWEWSNSDVLNYLNWDGDPSSTVNRGHCGSLTASSGFLKWGDYYCDGTLPFVCKFKQ

Tests used:
[1] = test system: dorsal root ganglia (DRG) neurons; experiment: Axon growth and branching in dissociated adult mouse DRG cultures; type: cell-based; conditions: for effect on recREG3A-induced decrease in axon growth / effect on recREG3A-induced increase in axon branching: co-treatment with recREG3A
From the text: Previously, it was shown that Reg3A mRNA expression increases after nerve injury and the mRNA is transported into regenerating peripheral nerve axons and spinal cord axon. The spinal cord model used a peripheral nerve graft to support regenerating of ascending spinal cord axons after transection. To determine if REG3A protein might affect axon growth, whether the dorsal root ganglia (DRG) neurons respond to recombinant human REG3A (recREG3A) was investigated.
shRNA depletion of Reg3A mRNA was used to determine if the endogenous REG3A protein reduces axon growth.
(§1) Specifically, it was observed that KHSRP protein increases in regenerating sciatic nerve axons, which promotes decay of regeneration-associated mRNAs including Gap43 and Snap25 mRNAs. Thus, herein it was investigated whether REG3A effects might converge on Khsrp mRNA.

KHSRP = experiment: Axonal KHSRP protein levels in DRG cultures; type: cell-based, mouse; conditions: for effect on recREG3A-dependent increase in axonal KHSRP: co-treatment with recREG3A
From the text: as §1

growth cone calcium = experiment: Axonal/growth cone calcium by GCaMP fluorescence in DRG spot cultures; type: cell-based, mouse; conditions: DRG spot cultures with AAV9-GCaMP
From the text: The findings above provide circumstantial but not direct evidence for elevated axoplasmic calcium as a key regulator of REG3A's effects on axons. As such, herein it was investigated whether REG3A increases calcium levels in DRG neurons using genetically encoded GCaMP fluorescent calcium indicator in DRG spot cultures. For this, DRG spot cultures were co-transduced with AAV9-GCaMP. […] Axonal calcium levels are known to increase immediately after axotomy but based on translational regulation of different axonal mRNAs that respond to elevated vs. normal axonal calcium levels, the axotomy induced increase in calcium returns to pre-injury levels within 16 hours after axotomy to allow translation of axonal mRNAs encoding regeneration-associated proteins. Thus, intra-axonal calcium levels in regenerating axons were monitored beginning at 16 hours after axotomy. The regenerating axons show an oscillatory GCaMP signal with broad peaks approximately every 50-70 min over a 4-hour period in AAV9-shCntl-transduced DRG spot cultures (FIG. 8E).

eIF2α^PS51 = eIF2α^PS51 immunofluorescence in growth cones of DRG cultures; type: cell-based; conditions: acute treatment of adult mouse DRG cultures
From the text: Previously, it was observed that axonal Khsrp mRNA translation is increased by activation of the PERK and subsequent PERK-dependent serine 51 phosphorylation of the translation initiation factor eIF2a. […] PERK inhibition similar reduced the REG3A-dependent translation of axonal GFP^MYR5′/3′khsrp in FRAP assays (FIG. 9C).

Molecule	effect on recREG3A-induced decrease in axon growth [1]	effect on recREG3A-induced increase in axon branching [1]	effect on recREG3A-dependent increase in axonal KHSRP (KHSRP)	axon branching ([1]; bath application of recREG3A, adult mouse sensory neurons)	axon growth ([1]; bath application of recREG3A, adult mouse sensory neurons, 24-hour exposure)	KHSRP levels in distal axons (KHSRP; recREG3A application)	growth cone / intra-axonal calcium levels (GCaMP) (growth cone calcium)	growth cone / intra-axonal calcium levels (GCaMP) (growth cone calcium; listed as RecREG3A)	eIF2α^PS51 levels in growth cones (eIF2α^PS51)
CC(=O)OCOC(=O)CN(CC(=O)OCOC(C)=O)c1ccccc1OCCOc1ccccc1N(CC(=O)OCOC(C)=O)CC(=O)OCOC(C)=O [BAPTA-AM]	blocked	blocked	attenuated						
O=C(O)CN(CC(=O)O)c1ccccc1OCCOc1ccccc1N(CC(=O)O)CC(=O)O [BAPTA]			also attenuated						
C[C@@H]1C[C@@H]([C@H](O)CC2CC(=O)NC(=O)C2)C(=O)[C@@H](C)C1 [cycloheximide]	prevented	prevented	did not occur						
B1				increased axon branching	reduced axon growth; also recorded: decreases axon extension	increased KHSRP levels in distal axons	significantly increased growth cone calcium	increases	increased eIF2α^PS51 levels in growth cones
